Data as given in the NIST ThermoML archive (doi:10.1016/j.tca.2016.02.005).

Legend:
[1] = xn = mol fraction of the nth substance listed; conditions: 101.3 kPa, Liquid; for speed of sound: Frequency=3 MHz, Sing-around technique in a fixed-path interferometer; for mass density: Vibrating tube method
[2] = refractive index (Na D-line) (dimensionless); xn = mol fraction of the nth substance listed; conditions: 101.3 kPa, Liquid, Standard Abbe refractometry

COCCO [2-methoxyethan-1-ol] + CCn1cc[n+](C)c1.F[B-](F)(F)F
Conditions | mass density, [1] [kg/m3] | refractive index, [2] | speed of sound, [1] [m/s]
298.15 K, x2 = 0 | 960.9 | 1.4003 | 1345.8
298.15 K, x2 = 0.0515 | 993.6 | 1.4031 | 1379.1
298.15 K, x2 = 0.102 | 1022 | 1.4052 | 1408.5
298.15 K, x2 = 0.1502 | 1046.9 | 1.4067 | 1433.7
298.15 K, x2 = 0.21 | 1075 | 1.408 | 1461.4
298.15 K, x2 = 0.3051 | 1113.8 | 1.4094 | 1498.3
298.15 K, x2 = 0.3976 | 1145.5 | 1.4101 | 1526.8
298.15 K, x2 = 0.5036 | 1175.9 | 1.4107 | 1552.1
298.15 K, x2 = 0.6063 | 1200.7 | 1.4111 | 1570.9
298.15 K, x2 = 0.701 | 1220.6 | 1.4115 | 1584.8
298.15 K, x2 = 0.8024 | 1240.1 | 1.4118 | 1597.7
298.15 K, x2 = 0.8521 | 1249.4 | 1.4117 | 1603.7
298.15 K, x2 = 0.9 | 1258.3 | 1.4115 | 1609.6
298.15 K, x2 = 0.9502 | 1267.8 | 1.4111 | 1616
308.15 K, x2 = 0 | 951.7 | 1.3961 | 1311.3
308.15 K, x2 = 0.0515 | 984.6 | 1.3991 | 1345.9
308.15 K, x2 = 0.102 | 1013.2 | 1.4014 | 1376.4
308.15 K, x2 = 0.1502 | 1038.3 | 1.4031 | 1402.7
308.15 K, x2 = 0.21 | 1066.5 | 1.4046 | 1431.6
308.15 K, x2 = 0.3051 | 1105.5 | 1.4061 | 1470
308.15 K, x2 = 0.3976 | 1137.4 | 1.407 | 1499.7
308.15 K, x2 = 0.5036 | 1168 | 1.4077 | 1526.1
308.15 K, x2 = 0.6063 | 1192.9 | 1.4082 | 1545.8
308.15 K, x2 = 0.701 | 1212.9 | 1.4087 | 1560.3
308.15 K, x2 = 0.8024 | 1232.4 | 1.4091 | 1573.6
308.15 K, x2 = 0.8521 | 1241.7 | 1.4091 | 1579.8
308.15 K, x2 = 0.9 | 1250.6 | 1.4089 | 1585.9
308.15 K, x2 = 0.9502 | 1260.2 | 1.4085 | 1592.5
318.15 K, x2 = 0 | 942.7 | 1.3917 | 1276.4
318.15 K, x2 = 0.0515 | 975.9 | 1.3951 | 1312.3
318.15 K, x2 = 0.102 | 1004.7 | 1.3977 | 1344.1
318.15 K, x2 = 0.1502 | 1030 | 1.3996 | 1371.4
318.15 K, x2 = 0.21 | 1058.5 | 1.4013 | 1401.5
318.15 K, x2 = 0.3051 | 1097.9 | 1.403 | 1441.5
318.15 K, x2 = 0.3976 | 1130.1 | 1.4039 | 1472.5
318.15 K, x2 = 0.5036 | 1160.8 | 1.4047 | 1500.1
318.15 K, x2 = 0.6063 | 1185.8 | 1.4053 | 1520.6
318.15 K, x2 = 0.701 | 1205.8 | 1.406 | 1535.7
318.15 K, x2 = 0.8024 | 1225.2 | 1.4064 | 1549.6
318.15 K, x2 = 0.8521 | 1234.4 | 1.4065 | 1556.1
318.15 K, x2 = 0.9 | 1243.2 | 1.4064 | 1562.4
318.15 K, x2 = 0.9502 | 1252.5 | 1.4059 | 1569.2
328.15 K, x2 = 0 | 933.4 | 1.3876 | 1241.9
328.15 K, x2 = 0.0515 | 966.8 | 1.3914 | 1279.2
328.15 K, x2 = 0.102 | 995.8 | 1.3943 | 1312.1
328.15 K, x2 = 0.1502 | 1021.3 | 1.3965 | 1340.5
328.15 K, x2 = 0.21 | 1050 | 1.3983 | 1371.7
328.15 K, x2 = 0.3051 | 1089.6 | 1.4002 | 1413.4
328.15 K, x2 = 0.3976 | 1122 | 1.4011 | 1445.7
328.15 K, x2 = 0.5036 | 1152.9 | 1.4018 | 1474.5
328.15 K, x2 = 0.6063 | 1178 | 1.4024 | 1495.9
328.15 K, x2 = 0.701 | 1198.1 | 1.403 | 1511.7
328.15 K, x2 = 0.8024 | 1217.6 | 1.4035 | 1526.2
328.15 K, x2 = 0.8521 | 1226.8 | 1.4036 | 1532.9
328.15 K, x2 = 0.9 | 1235.6 | 1.4035 | 1539.4
328.15 K, x2 = 0.9502 | 1245 | 1.4031 | 1546.4
